The Ki is the dissociation constant of the complex between target and ligand, obtained from inhibition or displacement. For orientation: Kd means the equilibrium constant for the complex coming apart.

Drawing on publication PMC4840437, “Crystal Structures and Binding Dynamics of Odorant-Binding Protein 3 from two aphid species Megoura viciae and Nasonovia ribisnigri” (Scientific Reports, 2016), this text covers Ki and Kd for 5 compounds.

SMILES strings stand for the structures. Like-named read-outs stand apart in the source and are kept apart here.

Assay [1] deals with T1, MvicOBP3 (Megoura viciae, UniProt A0A0S2E5N6).
T1 sequence (A0A0S2E5N6 2-122): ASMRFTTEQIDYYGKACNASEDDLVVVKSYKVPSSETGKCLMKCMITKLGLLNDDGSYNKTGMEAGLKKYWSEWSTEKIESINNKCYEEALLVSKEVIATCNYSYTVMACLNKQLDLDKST
As to the kind of experiment: Competitive fluorescence binding assay (NPN displacement). Here is the method:
(§1) Proteins were dissolved in 20 mM Tris-HCl buffer pH 7.4 and emission fluorescence spectra were recorded on a LS50 Luminescence Spectrometer (PerkinElmer, Buckinghamshire, UK) at 22 °C in a right angle configuration, with a 1 cm light path quartz cuvette and 5–10 nm slits for excitation and emission. […] The probe was excited at 337 nm and emission spectra were recorded between 380 and 450 nm. […] For determining binding constants, the intensity values corresponding to the maximum fluorescence emission were plotted against free ligand concentrations. We use GraphPad (http://www.graphpad.com/guides/prism/6/curve-fitting/index.htm?reg_one_site_competition_ki.htm) to determine the equilibrium dissociation constant Ki of ligand by measuring its competition for NPN and nonlinear regression curve fitting to the one site competitive binding model. This model fits the Ki of the ligand directly using the fixed concentration of NPN and the dissociation constant for NPN KNPN obtained from a direct fluorescence titration and nonlinear regression curve fitting to one site binding model Y = Bmax*X/(KNPN + X) + NS*X (X is the NPN concentration, Bmax is the maximum specific binding in the same units as Y, NS is the slope of nonspecific binding in Y units divided by X units). The corrected Ki is fitted directly rather than fitting an IC50 and modifying it with the Cheng and Prusoff equation[48]. The analysis assumes that the protein has one binding site and 100% active, and that the binding is reversible and at equilibrium. Tested compounds were EβF (Bedoukian Research, Danbury, CT, USA), β-pinene, (−)-α-pinene and (+)-limonene (Sigma, St. Louis, MO).

The target in assay [2] is T2, NribOBP3 (Nasonovia ribisnigri, UniProt A0A0M4AUH6).
T2 sequence (A0A0M4AUH6 1-119): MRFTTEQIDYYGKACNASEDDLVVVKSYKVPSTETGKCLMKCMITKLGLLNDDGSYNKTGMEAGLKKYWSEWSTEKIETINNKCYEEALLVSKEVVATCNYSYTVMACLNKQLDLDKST
The assay is described as above. Here is the method:
as §1

For assay [3], the target named is T1, MvicOBP3. As to the kind of experiment: Direct fluorescence titration of the probe NPN. In kind it is binding. The following applies: recombinant MvicOBP3, 2 μM protein, 20 mM Tris-HCl pH 7.4, 22 °C; read-out: Kd of fluorescent probe NPN. Here is the method: as §1, with “The analysis assumes that the protein has one binding site and 100% active, and that the binding is reversible and at equilibrium. Tested compounds were EβF (Bedoukian Research, Danbury, CT, USA), β-pinene, (−)-α-pinene and (+)-limonene (Sigma, St. Louis, MO).” left out

For assay [4], the target named is T2, NribOBP3. In words: Direct fluorescence titration of the probe NPN. It counts as binding. As to conditions: recombinant NribOBP3, 2 μM protein, 20 mM Tris-HCl pH 7.4, 22 °C; read-out: Kd of fluorescent probe NPN. Here is the method:
as §1, with “The analysis assumes that the protein has one binding site and 100% active, and that the binding is reversible and at equilibrium. Tested compounds were EβF (Bedoukian Research, Danbury, CT, USA), β-pinene, (−)-α-pinene and (+)-limonene (Sigma, St. Louis, MO).” left out

Where [5] appears, read: displacement of NPN (2 μM) from MvicOBP3/NPN complex, one site competitive binding model, read-out: Competitive inhibitor binding constant (Ki).
Where [6] appears, read: displacement of NPN (2 μM) from NribOBP3/NPN complex, one site competitive binding model, read-out: Competitive inhibitor binding constant (Ki).

In the case of `C=C(C)C1CC=C(C)CC1` (single isomer, unassigned; (+)) [(+)-limonene], the Ki in assay [1] (setting [5]) amounted to 2500 nM.

As for `C=CC(=C)CC/C=C(\C)CCC=C(C)C` [(E)-β-farnesene], the Ki in assay [1] (setting [5]) worked out at 100 nM; in assay [2] (setting [6]) it was 5200 nM.

For the compound `CC1=CCC2CC1C2(C)C` (stereo not drawn) [(−)-α-pinene], the Ki in assay [1] (setting [5]) amounted to 1800 nM; in assay [2] (setting [6]) it was 20200 nM.

With `c1ccc(Nc2cccc3ccccc23)cc1` [NPN, N-phenyl-1-naphthylamine], the dissociation constant Kd in assay [3] was determined as 1900 nM; in assay [4], 9000 nM.

Turning to `C=C1CCC2CC1C2(C)C` (stereo not drawn) [β-pinene], the Ki in assay [1] was 2300 nM; in assay [2], 30700 nM.
